Experimental data taken from patent publication US10035820B2, “Compounds which inhibit neuronal exocytosis” (Lubrizol Advanced Materials, Inc., priority 2012, dated 2018).

Test system: human neuroblastoma cell line
Experiment: Release of noradrenaline induced by TPA/Ionomycin in a neuroblastoma cell line, quantified by ELISA
Assay type: cell-based
Settings: TPA/ION control = 100
Method: The induction of the release of noradrenaline with TPA (12-O-tetradecanoylphorbol-13-acetate)/Ionomycin enables direct measurement of neuronal exocytosis. For the study of the inhibitory effect of the compounds of the invention on the release of noradrenaline, cells of a human neuroblastoma cell line were pre-incubated (1×10^6 cells/well) for 60 minutes with the compound of the invention (1 μM, 10 μM, 100 μM, 500 μM or 1 mM compounds), and afterward the release of noradrenaline was induced. The release of the noradrenaline neurotransmitter was induced by an 8 minute pre-treatment with a solution of 12-O-tetradecanoylphorbol-13-acetate (TPA) 100 nM, which mobilized the intracellular vesicles which contained the neurotransmitter; followed by a 5 minute incubation with TPA/Ionomycin (100 nM/10 μM), which induced the release of the neurotransmitter contained in these vesicles. […] For this, absorbance at 405 nm was measured in Thermo Scientific Multiskan Ascent equipment.
The blocking of the SNARE complex by the compounds of the invention lead to an inhibition of neuronal exocytosis and therefore, a decrease in the levels of released noradrenaline (Table 6).

Substance	% RELEASED NORADRENALINE Average (1 μM compound)	% RELEASED NORADRENALINE Average (10 μM compound)	% RELEASED NORADRENALINE Average (100 μM compound)	% RELEASED NORADRENALINE Average (500 μM compound)	% RELEASED NORADRENALINE Average (1000 μM compound)
Ac-ENLKRWM-NH2 [Ac-SEQ ID NO: 117-NH2]	87.99%	83.11%	70.76%	58.37%	54.64%
Ac-EELKRWM-NH2 [Ac-SEQ ID NO: 116-NH2]	87.59%	83.30%	62.24%	52.82%	43.10%
